Results from ChEMBL document CHEMBL5579794, “Improved synthesis and evaluation of preclinical pharmacodynamic parameters of a new monocyclic β-lactam DPI-2016” (Bioorg Med Chem Lett, 2024).

Assays:
[1] = Stability in mouse liver microsomes at 1 uM measured up to 60 mins in presence of NADPH by LC-MS/MS analysis; assay type: ADME, Microsome; settings: 1 h
Cytochrome P450 2D6 = Cytochrome P450 2D6 (Homo sapiens, UniProt P10635); experiment: Inhibition of CYP2D6 (unknown origin) at upto 100 uM; assay type: ADME
Cytochrome P450 2B6 = biological target: T1, Cytochrome P450 2B6 (Homo sapiens, UniProt P20813); experiment: Inhibition of CYP2B6 (unknown origin) at upto 100 uM; assay type: ADME
T1 sequence (P20813 whole entry): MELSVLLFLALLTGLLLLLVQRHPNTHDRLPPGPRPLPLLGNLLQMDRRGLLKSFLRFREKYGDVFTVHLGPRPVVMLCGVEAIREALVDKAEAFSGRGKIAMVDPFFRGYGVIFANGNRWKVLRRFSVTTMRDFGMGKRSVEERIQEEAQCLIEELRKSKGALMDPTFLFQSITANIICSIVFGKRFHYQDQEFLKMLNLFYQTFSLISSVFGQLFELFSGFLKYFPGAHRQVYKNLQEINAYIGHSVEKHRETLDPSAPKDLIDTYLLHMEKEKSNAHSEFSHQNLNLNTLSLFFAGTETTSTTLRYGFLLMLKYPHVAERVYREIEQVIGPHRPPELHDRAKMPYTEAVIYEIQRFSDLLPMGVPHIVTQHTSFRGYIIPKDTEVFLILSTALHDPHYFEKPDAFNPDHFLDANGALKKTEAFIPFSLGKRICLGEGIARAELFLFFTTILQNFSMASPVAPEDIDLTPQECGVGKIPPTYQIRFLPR

[2] = Stability in mouse plasma at 1 uM measured upto 120 mins by LC-MS/MS analysis; assay type: ADME, cell-free; settings: 2 h
[3] = Stability in rat plasma at 1 uM measured upto 120 mins by LC-MS/MS analysis; assay type: ADME, cell-free; settings: 2 h
Pseudomonas aeruginosa [4] = experiment: Antibacterial activity against Pseudomonas aeruginosa infected in BalbC mouse model of Septicaemia infection assessed as survival rate at 128 mg/kg administration starting at 0.5 to 2 hrs post infection and measured after 5 days relative to control; assay type: functional; settings: 120 h, time 5 day
[5] = Stability in dog plasma at 1 uM measured upto 120 mins by LC-MS/MS analysis; assay type: ADME, cell-free, Canis lupus familiaris; settings: 2 h
Cytochrome P450 2C8 = biological target: T2, Cytochrome P450 2C8 (Homo sapiens, UniProt P10632); experiment: Inhibition of CYP2C8 (unknown origin) at upto 100 uM; assay type: ADME
T2 sequence (P10632 whole entry): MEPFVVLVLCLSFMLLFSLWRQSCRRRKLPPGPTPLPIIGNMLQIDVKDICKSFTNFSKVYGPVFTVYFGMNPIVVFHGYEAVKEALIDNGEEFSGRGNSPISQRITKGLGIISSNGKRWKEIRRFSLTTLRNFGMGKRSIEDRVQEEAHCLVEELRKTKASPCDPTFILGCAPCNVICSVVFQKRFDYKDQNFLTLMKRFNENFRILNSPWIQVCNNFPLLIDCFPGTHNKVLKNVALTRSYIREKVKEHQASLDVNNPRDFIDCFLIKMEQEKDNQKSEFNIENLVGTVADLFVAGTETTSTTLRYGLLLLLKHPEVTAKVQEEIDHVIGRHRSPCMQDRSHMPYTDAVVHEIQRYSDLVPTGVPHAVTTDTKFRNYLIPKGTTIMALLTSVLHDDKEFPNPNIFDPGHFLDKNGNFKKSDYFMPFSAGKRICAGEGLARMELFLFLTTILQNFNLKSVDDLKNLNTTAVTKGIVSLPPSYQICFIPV

Huh-7 = experiment: Cytotoxicity against human Huh-7 cells at 300 ug/ml relative to control; assay type: toxicity, cell-based; settings: at 300 µg/mL
[6] = Stability in monkey plasma at 1 uM measured upto 120 mins by LC-MS/MS analysis; assay type: ADME, cell-free, Macaca mulatta; settings: rhesus monkey, 2 h
[7] = AUC in male Sprague-Dawley rat at 2 mg/kg by LC-MS/MS analysis; assay type: ADME, organism-based; settings: in vivo
Cytochrome P450 1A2 = biological target: T3, Cytochrome P450 1A2 (Homo sapiens, UniProt P05177); experiment: Inhibition of CYP1A2 (unknown origin) at upto 100 uM; assay type: ADME
T3 sequence (P05177 whole entry): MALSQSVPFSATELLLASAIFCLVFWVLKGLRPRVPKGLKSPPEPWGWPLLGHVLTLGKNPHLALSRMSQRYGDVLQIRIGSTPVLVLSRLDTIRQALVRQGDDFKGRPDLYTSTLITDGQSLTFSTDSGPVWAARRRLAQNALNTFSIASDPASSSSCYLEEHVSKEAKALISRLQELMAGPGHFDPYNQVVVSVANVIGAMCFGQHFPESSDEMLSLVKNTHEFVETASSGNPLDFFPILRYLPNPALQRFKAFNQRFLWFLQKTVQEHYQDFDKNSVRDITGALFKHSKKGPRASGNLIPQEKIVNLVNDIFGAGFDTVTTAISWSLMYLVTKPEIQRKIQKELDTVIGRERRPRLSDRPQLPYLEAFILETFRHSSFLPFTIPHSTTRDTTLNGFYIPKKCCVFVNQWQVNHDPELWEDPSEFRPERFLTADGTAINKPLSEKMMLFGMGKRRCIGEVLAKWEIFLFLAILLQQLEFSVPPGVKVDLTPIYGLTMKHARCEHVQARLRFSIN

[8] = Stability in monkey liver microsomes at 1 uM measured up to 60 mins in presence of NADPH by LC-MS/MS analysis; assay type: ADME, Macaca mulatta, Microsome; settings: rhesus monkey, 1 h
Cytochrome P450 2C19 = Cytochrome P450 2C19 (Homo sapiens, UniProt P33261); experiment: Inhibition of CYP2C19 (unknown origin) at upto 100 uM; assay type: ADME
[9] = Stability in dog microsomes at 1 uM measured up to 60 mins in presence of NADPH by LC-MS/MS analysis; assay type: ADME, Canis lupus familiaris, Liver, Microsome; settings: 1 h
Cytochrome P450 3A4 = Cytochrome P450 3A4 (Homo sapiens, UniProt P08684); experiment: Inhibition of CYP3A4 (unknown origin) at upto 100 uM; assay type: ADME
[10] = Stability in human liver microsomes at 1 uM measured up to 60 mins in presence of NADPH by LC-MS/MS analysis; assay type: ADME, Microsome; settings: 1 h
[11] = Plasma protein binding in human at 1 uM incubated for 6 hrs by LC-MS/MS analysis; assay type: ADME, cell-free
Cytochrome P450 2C9 = Cytochrome P450 2C9 (Homo sapiens, UniProt P11712); experiment: Inhibition of CYP2C9 (unknown origin) at upto 100 uM; assay type: ADME
[12] = Stability in rat liver microsomes at 1 uM measured up to 60 mins in presence of NADPH by LC-MS/MS analysis; assay type: ADME, Microsome; settings: 1 h
Pseudomonas aeruginosa [13] = experiment: Antibacterial activity against Pseudomonas aeruginosa infected in BalbC mouse model of Septicaemia infection assessed as survival rate at 8 mg/kg administered 30 mins post infection and measured after 1 day relative to control; assay type: functional; settings: 24 h
[14] = Half life in male Sprague-Dawley rat at 2 mg/kg by LC-MS/MS analysis; assay type: ADME, organism-based; settings: in vivo
Pseudomonas aeruginosa [15] = experiment: Antibacterial activity against Pseudomonas aeruginosa infected in BalbC mouse model of Septicaemia infection assessed as survival rate at 8 mg/kg administered 30 mins post infection and measured after 2 days relative to control; assay type: functional; settings: 48 h, time 2 day
Pseudomonas aeruginosa [16] = experiment: Antibacterial activity against Pseudomonas aeruginosa infected in BalbC mouse model of Septicaemia infection assessed as survival rate at 4 mg/kg administered 30 mins post infection and measured after 6 days relative to control; assay type: functional; settings: 144 h, time 6 day

Sequence of Cytochrome P450 3A4 (P08684 whole entry): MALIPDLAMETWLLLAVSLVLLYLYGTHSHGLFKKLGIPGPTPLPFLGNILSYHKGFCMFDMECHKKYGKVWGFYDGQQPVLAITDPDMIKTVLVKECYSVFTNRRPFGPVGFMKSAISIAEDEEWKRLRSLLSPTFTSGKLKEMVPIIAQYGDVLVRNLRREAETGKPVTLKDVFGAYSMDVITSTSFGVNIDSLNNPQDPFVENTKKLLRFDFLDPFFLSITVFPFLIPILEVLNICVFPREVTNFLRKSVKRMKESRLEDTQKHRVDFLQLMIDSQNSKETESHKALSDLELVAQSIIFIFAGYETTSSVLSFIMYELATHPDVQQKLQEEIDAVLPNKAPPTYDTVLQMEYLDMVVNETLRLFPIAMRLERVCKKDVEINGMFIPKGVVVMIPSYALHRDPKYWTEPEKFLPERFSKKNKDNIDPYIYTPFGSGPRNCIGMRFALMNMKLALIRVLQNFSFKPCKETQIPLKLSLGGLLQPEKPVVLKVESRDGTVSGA
Sequence of Cytochrome P450 2C9 (P11712 whole entry): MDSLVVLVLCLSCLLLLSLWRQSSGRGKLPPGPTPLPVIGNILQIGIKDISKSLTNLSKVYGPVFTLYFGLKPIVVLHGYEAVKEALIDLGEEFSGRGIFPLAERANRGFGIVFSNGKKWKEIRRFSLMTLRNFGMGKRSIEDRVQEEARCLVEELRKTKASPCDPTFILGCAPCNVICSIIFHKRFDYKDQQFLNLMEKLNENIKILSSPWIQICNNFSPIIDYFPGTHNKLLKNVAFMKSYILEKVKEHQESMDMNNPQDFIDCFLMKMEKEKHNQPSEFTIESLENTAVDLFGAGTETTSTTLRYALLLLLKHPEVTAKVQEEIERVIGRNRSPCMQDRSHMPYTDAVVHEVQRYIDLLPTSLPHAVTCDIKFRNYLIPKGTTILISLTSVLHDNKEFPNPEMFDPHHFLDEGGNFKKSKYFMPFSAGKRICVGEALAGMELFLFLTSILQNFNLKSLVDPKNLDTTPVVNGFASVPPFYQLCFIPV
Sequence of Cytochrome P450 2D6 (P10635 whole entry): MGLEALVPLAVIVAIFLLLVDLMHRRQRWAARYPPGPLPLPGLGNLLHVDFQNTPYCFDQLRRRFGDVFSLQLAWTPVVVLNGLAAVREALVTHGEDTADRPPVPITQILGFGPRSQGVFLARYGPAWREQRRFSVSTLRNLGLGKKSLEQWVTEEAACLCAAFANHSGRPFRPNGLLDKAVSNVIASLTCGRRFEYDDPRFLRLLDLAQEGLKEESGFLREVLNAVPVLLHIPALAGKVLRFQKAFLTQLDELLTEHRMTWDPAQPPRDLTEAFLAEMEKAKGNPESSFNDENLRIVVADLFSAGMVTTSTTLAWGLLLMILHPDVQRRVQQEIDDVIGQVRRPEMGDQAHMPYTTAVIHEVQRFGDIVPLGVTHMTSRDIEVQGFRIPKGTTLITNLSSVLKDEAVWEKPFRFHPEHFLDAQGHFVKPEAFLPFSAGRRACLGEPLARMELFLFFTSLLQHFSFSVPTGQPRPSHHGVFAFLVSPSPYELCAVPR
Sequence of Cytochrome P450 2C19 (P33261 whole entry): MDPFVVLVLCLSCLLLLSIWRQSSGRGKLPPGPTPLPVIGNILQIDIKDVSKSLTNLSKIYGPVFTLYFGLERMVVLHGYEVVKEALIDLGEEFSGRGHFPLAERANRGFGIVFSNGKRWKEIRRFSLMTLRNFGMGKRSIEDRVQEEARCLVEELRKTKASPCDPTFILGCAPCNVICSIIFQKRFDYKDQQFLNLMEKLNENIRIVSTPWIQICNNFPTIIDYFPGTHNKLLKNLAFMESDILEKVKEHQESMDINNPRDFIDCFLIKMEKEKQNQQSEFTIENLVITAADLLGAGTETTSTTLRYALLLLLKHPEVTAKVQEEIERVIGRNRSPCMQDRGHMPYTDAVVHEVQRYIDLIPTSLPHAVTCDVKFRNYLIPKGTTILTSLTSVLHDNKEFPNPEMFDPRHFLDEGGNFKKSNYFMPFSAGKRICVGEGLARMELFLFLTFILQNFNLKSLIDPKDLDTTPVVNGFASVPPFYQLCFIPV

For `C[C@H]1[C@H](NC(=O)/C(=N\OC(C)(C)C(=O)O)c2csc(N)n2)C(=O)N1S(=O)(=O)O` [AZTREONAM], the Stability [1] was “Stable”, the “inhibition (INH)” value (Cytochrome P450 2D6) was “Not Active” and the “inhibition (INH)” value (Cytochrome P450 2B6) was “Not Active”. For the same compound, the Stability [2] was “Stable”, the Stability [3] was “Stable” and the survival at 128 mg/kg (Pseudomonas aeruginosa [4]) was 90%. For the same compound, the Stability [5] was “Stable”, the “inhibition (INH)” value (Cytochrome P450 2C8) was “Not Active” and the Activity (Huh-7) was 60%. For the same compound, the Stability [6] was “Stable”, the AUC [7] was 2.41 µg·h/mL and the “inhibition (INH)” value (Cytochrome P450 1A2) was “Not Active”. For the same compound, the Stability [8] was “Stable”, the “inhibition (INH)” value (Cytochrome P450 2C19) was “Not Active” and the Stability [9] was “Stable”. For the same compound, the “inhibition (INH)” value (Cytochrome P450 3A4) was “Not Active”, the Stability [10] was “Stable” and the Stability ([11]; 6 h, 1 µM) was “Stable”. The “inhibition (INH)” value (Cytochrome P450 2C9) was “Not Active” and the Stability [12] was “Stable”.

For `Cc1sc(N)nc1/C(=N/O[C@@H](COc1ccc(C(=N)N[C@@H]2CCNC2)cc1)C(=O)O)C(=O)N[C@@H]1C(=O)N(OS(=O)(=O)O)C1(C)C`, the Stability [1] was “Stable”, the survival at 8 mg/kg (Pseudomonas aeruginosa [13]) was 100% and the “inhibition (INH)” value (Cytochrome P450 2D6) was “Not Active”. For the same compound, the “inhibition (INH)” value (Cytochrome P450 2B6) was “Not Active”, the Stability [2] was “Stable” and the Stability [3] was “Stable”. For the same compound, the Stability [5] was “Stable”, the “inhibition (INH)” value (Cytochrome P450 2C8) was “Not Active” and the Activity (Huh-7) was 60%. The Stability [6] was “Stable”, the half-life [14] was 24 min and the AUC [7] was 2.79 µg·h/mL. The “inhibition (INH)” value (Cytochrome P450 1A2) was “Not Active”, the Stability [8] was “Stable” and the “inhibition (INH)” value (Cytochrome P450 2C19) was “Not Active”. For the same compound, the Stability [9] was “Stable”, the “inhibition (INH)” value (Cytochrome P450 3A4) was “Not Active” and the Stability [10] was “Stable”. For the same compound, the fraction unbound at 6 h, 1 µM ([11]; read-out: PPB (converted)) was 0.383, the survival at 8 mg/kg (Pseudomonas aeruginosa [15]) was 60% and the “inhibition (INH)” value (Cytochrome P450 2C9) was “Not Active”. The survival at 4 mg/kg (Pseudomonas aeruginosa [16]) was 30% and the Stability [12] was “Stable”.
